The record followed here is patent US20240390340A1 (INCYTE CORPORATION, priority 2023, published 2024).

One test deals with KRAS G12D (Homo sapiens, UniProt P01116, G12D). Description: GDP-GTP exchange assay (bodipy-GDP/GppNHp, SOS1), KRAS G12D. The format is biochemical. The note with it: bodipy-loaded KRAS G12D 2.5 nM, 4 h pre-incubation; value for the most potent isomer quoted for certain compounds; read-out: G12D (KRAS G12D exchange assay IC50).
The target in the next test is KRAS G12V (Homo sapiens, UniProt P01116, G12V). Description: GDP-GTP exchange assay (bodipy-GDP/GppNHp, SOS1), KRAS G12V. The format is biochemical. As to conditions: KRAS G12V mutant; value for the most potent isomer quoted for certain compounds; read-out: G12V (KRAS G12V exchange assay IC50).
Sequence of KRAS G12V (P01116 1-188 isoform P01116-2 G12V): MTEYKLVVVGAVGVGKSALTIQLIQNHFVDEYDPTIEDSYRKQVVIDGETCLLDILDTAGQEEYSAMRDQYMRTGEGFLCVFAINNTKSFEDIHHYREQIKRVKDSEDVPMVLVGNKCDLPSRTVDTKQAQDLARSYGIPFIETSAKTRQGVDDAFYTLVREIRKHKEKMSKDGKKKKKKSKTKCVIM

Sequence of KRAS G12D (P01116 1-188 isoform P01116-2 G12D): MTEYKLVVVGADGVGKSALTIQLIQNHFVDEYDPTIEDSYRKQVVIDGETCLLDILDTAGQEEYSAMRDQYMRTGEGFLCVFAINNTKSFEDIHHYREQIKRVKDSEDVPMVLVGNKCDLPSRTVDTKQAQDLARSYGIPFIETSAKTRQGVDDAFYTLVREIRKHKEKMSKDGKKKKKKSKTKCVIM

A word on the IC50: it is the midpoint of a concentration-inhibition curve. For `Cc1nc(O[C@H]2C[C@H](c3cc4c(C)nc5c(F)c(-c6cccc(Cl)c6Cl)c(CCC#N)cc5c4n3[C@H]3[C@H]4CN[C@@H]3C4)N(C(=O)C3CC3)C2)ccc1C#N` [Example 306], the IC50 on KRAS G12D and at KRAS G12V was ≤ 100 nM in each case.
For the molecule `Cc1nc2c(F)c(-c3cccc(Cl)c3Cl)c(CCC#N)cc2c2c1cc([C@H]1C[C@H](Oc3ccc(C(F)(F)F)nc3)CN1C(=O)C1CC1)n2[C@H]1[C@H]2CN[C@@H]1C2` [Example 308], the IC50 at KRAS G12D and on KRAS G12V was ≤ 100 nM in each case.
In the case of `Cc1cccc(O[C@H]2C[C@H](c3cc4c(C)nc5c(F)c(-c6cccc(Cl)c6Cl)c(CCC#N)cc5c4n3[C@H]3C4CNC3C4)N(C(=O)C3CC3)C2)c1` (stereo partly drawn) [Example 134], the half-inhibitory concentration (IC50) at KRAS G12D and at KRAS G12V was ≤ 100 nM each time.
As for `COC1CN(c2cc(O[C@H]3C[C@H](c4cc5c(C)nc6c(F)c(-c7cccc(Cl)c7Cl)c(CCC#N)cc6c5n4[C@H]4[C@H]5CN[C@@H]4C5)N(C(=O)C4CC4)C3)ccn2)C1` [Example 366], the IC50 on KRAS G12D and on KRAS G12V was ≤ 100 nM in each case.
For `Cc1nc2c(F)c(-c3cccc(Cl)c3Cl)c(CCC#N)cc2c2c1cc([C@H]1C[C@H](n3cncn3)CN1C(=O)C1CC1)n2[C@H]1[C@H]2CN[C@@H]1C2` [Example 276], the IC50 at KRAS G12D and on KRAS G12V was ≤ 100 nM each time.
For the molecule `Cc1nc2c(F)c(-c3cccc(Cl)c3Cl)c(CCC#N)cc2c2c1cc([C@H]1C[C@H](OC[C@@H]3CCCO3)CN1C(=O)C1CC1)n2[C@H]1[C@H]2CN[C@@H]1C2` [Example 400], the IC50 at KRAS G12D and on KRAS G12V was ≤ 100 nM each time.
On to `Cc1nc2c(F)c(-c3cccc(Cl)c3Cl)c(CCC#N)cc2c2c1cc([C@H]1C[C@H](n3cc(-c4ccccc4)cn3)CN1C(=O)C1CC1)n2[C@H]1[C@H]2CN[C@@H]1C2` [Example 354], for which the IC50 at KRAS G12D was ≤ 100 nM; at KRAS G12V it was 100 to 1000 nM.
For the molecule `Cc1nc2c(F)c(-c3cccc(Cl)c3Cl)c(CCC#N)cc2c2c1cc([C@H]1C[C@H](n3nncc3-c3ccccc3)CN1C(=O)C1CC1)n2[C@H]1[C@H]2CN[C@@H]1C2` [Example 143], the IC50 on KRAS G12D and at KRAS G12V was ≤ 100 nM in each case.
With `Cc1ccnc(O[C@H]2C[C@H](c3cc4c(C)nc5c(F)c(-c6cccc(Cl)c6Cl)c(CCC#N)cc5c4n3[C@H]3[C@H]4CN[C@@H]3C4)N(C(=O)C3CC3)C2)c1` [Example 422], the IC50 at KRAS G12D and at KRAS G12V was ≤ 100 nM each time.
Turning to `COC(=O)N1C[C@@H](Oc2ccccn2)C[C@@H]1c1cc2c(-c3ccc(CN(C)C)c(F)c3F)nc3c(F)c(-c4cccc(Cl)c4Cl)c(CCC#N)cc3c2n1[C@H]1[C@H]2CN[C@@H]1C2` [Example 148], the IC50 on KRAS G12D and on KRAS G12V was ≤ 100 nM in each case.
`Cc1nc2c(F)c(-c3cccc(Cl)c3Cl)c(CCC#N)cc2c2c1cc([C@H]1C[C@H](OC[C@@H]3CCCC[C@H]3C#N)CN1C(=O)C1CC1)n2[C@H]1[C@H]2CN[C@@H]1C2` [Example 285]: the IC50 at KRAS G12D and at KRAS G12V was ≤ 100 nM in each case.
On to `Cc1ccccc1C(=O)N1C[C@@H](OCc2c(F)cccc2F)C[C@@H]1c1cc2c(C)nc3c(F)c(-c4cccc(Cl)c4Cl)c(CCC#N)cc3c2n1[C@H]1[C@H]2CN[C@@H]1C2` [Example 196], for which the IC50 is 100 to 1000 nM on KRAS G12D and ≤ 100 nM at KRAS G12V.
For `Cc1cccc(CO[C@H]2C[C@H](c3cc4c(C)nc5c(F)c(-c6cccc(Cl)c6Cl)c(CCC#N)cc5c4n3[C@H]3[C@H]4CN[C@@H]3C4)N(C(=O)C3CC3)C2)c1` [Example 91], the IC50 at KRAS G12D and at KRAS G12V was ≤ 100 nM throughout.
Consider `Cc1nc2c(F)c(-c3cccc(Cl)c3Cl)c(CCC#N)cc2c2c1cc([C@H]1C[C@H](OCc3c(F)cccc3F)CN1C(=O)C1CC1)n2[C@H]1[C@H]2CN[C@@H]1C2` [Example 115], for which the IC50 on KRAS G12D and at KRAS G12V was ≤ 100 nM in each case.
Consider `Cc1nc2c(F)c(-c3cccc(Cl)c3Cl)c(CCC#N)cc2c2c1cc([C@H]1C[C@H](Oc3cc(Cl)ccn3)CN1C(=O)C1CC1)n2[C@H]1[C@H]2CN[C@@H]1C2` [Example 297], for which the IC50 at KRAS G12D and on KRAS G12V was ≤ 100 nM each time.
